What was measured:
[1] = target: T1, truncated LRRK2-G2019S (GST tagged LRRK2-G2019S of amino acids 970-2527) (Homo sapiens, UniProt Q5S007, G2019S); assay: LRRKtide 32P-ATP peptide kinase assay (Protocol 1), truncated LRRK2-G2019S; type: biochemical; conditions: 10 μM ATP, 200 μM lrrktide
T1 construct: GST tagged LRRK2-G2019S of amino acids 970-2527; GST
Method: (§1) The inhibition of LRRK2 and LRRK1 kinase was assessed using LRRK2 and LRRK1 recombinant protein in an in vitro peptide-based kinase assay.
(§2) LRRK2 protein is prepared as described in Daniëls et al. ((2011) J Neurochem 116, 304-315.). HEK293T cells are transfected with pCHMWS-3xflag-LRRK2 plasmid using polyethyleneimine and lysed after 48-72 hours in lysis buffer (Tris 20 mM pH 7.5, NaCl 150 mM, EDTA 1 mM, Triton 1%, Glycerol 10%, protease inhibitor cocktail). Lysates are cleared by centrifugation at 20,000 g for 10 minutes and incubated with normal mouse IgGs bound to agarose beads to remove proteins aspecifically binding to agarose or mouse IgGs. After removal of the IgG bead slurry, lysates are incubated for 3 to 18 hours with flagM2 bound to agarose beads. Beads are washed 4 times with wash buffer (Tris 25 mM pH 7.5, NaCl 400 mM, Triton 1%) and rinsed in kinase buffer (Tris-HCl 25 mM pH 7.5, 10 mM MgCl2, 2 mM dithiothreitol (DTT), 0.02% triton, 5 mM beta-glycerophosphate, 0.1 mM Na3VO4). Proteins are eluted in 5 volumes of kinase buffer containing 100 μg/ml 3xflag peptide. For assays using purified protein bound to affinity resin, affinity beads are resuspended in an equal volume of kinase buffer unless otherwise indicated. Purity and concentration are assessed by SDS-PAGE (3-8% tris-acetate SDS gel) and Coomassie Brilliant Blue staining or silver staining. Alternatively, a truncated LRRK2 enzyme (GST tagged LRRK2 of amino acids 970-2527) and a truncated LRRK2-G2019S (GST tagged LRRK2-G2019S of amino acids 970-2527) are used.
(§3) For Irrktide phosphorylation, recombinant LRRK2 is incubated with 6 μCi of 32P-ATP (3000 Ci/mmol), 200 μM Irrktide, 10 μM ATP and compound or solvent per 40 μl reaction for 30 minutes at 30° C. Compounds are tested at concentrations ranging from […]; the final amount of DMSO in the kinase reaction is 1%. Reactions are stopped and spotted to P81 phosphocellulose paper and washed 4×10 minutes in 75 mM phosphoric acid. Lrrktide phosphorylation levels are measured via autoradiography. Kinase assays are performed for each condition in triplicate.
(§4) LRRKtide phosphorylation levels are plotted vs. the log of the compound concentration and inhibition curves are fitted from which IC50 values are derived.

[2] = target: T2, full-length LRRK2 (Homo sapiens, UniProt Q5S007); assay: LRRKtide 32P-ATP peptide kinase assay (Protocol 1), full-length LRRK2; type: biochemical; conditions: 10 μM ATP, 200 μM lrrktide
T2 construct: full-length; made in house; host or cells: HEK293T
T2 sequence (Q5S007 whole entry): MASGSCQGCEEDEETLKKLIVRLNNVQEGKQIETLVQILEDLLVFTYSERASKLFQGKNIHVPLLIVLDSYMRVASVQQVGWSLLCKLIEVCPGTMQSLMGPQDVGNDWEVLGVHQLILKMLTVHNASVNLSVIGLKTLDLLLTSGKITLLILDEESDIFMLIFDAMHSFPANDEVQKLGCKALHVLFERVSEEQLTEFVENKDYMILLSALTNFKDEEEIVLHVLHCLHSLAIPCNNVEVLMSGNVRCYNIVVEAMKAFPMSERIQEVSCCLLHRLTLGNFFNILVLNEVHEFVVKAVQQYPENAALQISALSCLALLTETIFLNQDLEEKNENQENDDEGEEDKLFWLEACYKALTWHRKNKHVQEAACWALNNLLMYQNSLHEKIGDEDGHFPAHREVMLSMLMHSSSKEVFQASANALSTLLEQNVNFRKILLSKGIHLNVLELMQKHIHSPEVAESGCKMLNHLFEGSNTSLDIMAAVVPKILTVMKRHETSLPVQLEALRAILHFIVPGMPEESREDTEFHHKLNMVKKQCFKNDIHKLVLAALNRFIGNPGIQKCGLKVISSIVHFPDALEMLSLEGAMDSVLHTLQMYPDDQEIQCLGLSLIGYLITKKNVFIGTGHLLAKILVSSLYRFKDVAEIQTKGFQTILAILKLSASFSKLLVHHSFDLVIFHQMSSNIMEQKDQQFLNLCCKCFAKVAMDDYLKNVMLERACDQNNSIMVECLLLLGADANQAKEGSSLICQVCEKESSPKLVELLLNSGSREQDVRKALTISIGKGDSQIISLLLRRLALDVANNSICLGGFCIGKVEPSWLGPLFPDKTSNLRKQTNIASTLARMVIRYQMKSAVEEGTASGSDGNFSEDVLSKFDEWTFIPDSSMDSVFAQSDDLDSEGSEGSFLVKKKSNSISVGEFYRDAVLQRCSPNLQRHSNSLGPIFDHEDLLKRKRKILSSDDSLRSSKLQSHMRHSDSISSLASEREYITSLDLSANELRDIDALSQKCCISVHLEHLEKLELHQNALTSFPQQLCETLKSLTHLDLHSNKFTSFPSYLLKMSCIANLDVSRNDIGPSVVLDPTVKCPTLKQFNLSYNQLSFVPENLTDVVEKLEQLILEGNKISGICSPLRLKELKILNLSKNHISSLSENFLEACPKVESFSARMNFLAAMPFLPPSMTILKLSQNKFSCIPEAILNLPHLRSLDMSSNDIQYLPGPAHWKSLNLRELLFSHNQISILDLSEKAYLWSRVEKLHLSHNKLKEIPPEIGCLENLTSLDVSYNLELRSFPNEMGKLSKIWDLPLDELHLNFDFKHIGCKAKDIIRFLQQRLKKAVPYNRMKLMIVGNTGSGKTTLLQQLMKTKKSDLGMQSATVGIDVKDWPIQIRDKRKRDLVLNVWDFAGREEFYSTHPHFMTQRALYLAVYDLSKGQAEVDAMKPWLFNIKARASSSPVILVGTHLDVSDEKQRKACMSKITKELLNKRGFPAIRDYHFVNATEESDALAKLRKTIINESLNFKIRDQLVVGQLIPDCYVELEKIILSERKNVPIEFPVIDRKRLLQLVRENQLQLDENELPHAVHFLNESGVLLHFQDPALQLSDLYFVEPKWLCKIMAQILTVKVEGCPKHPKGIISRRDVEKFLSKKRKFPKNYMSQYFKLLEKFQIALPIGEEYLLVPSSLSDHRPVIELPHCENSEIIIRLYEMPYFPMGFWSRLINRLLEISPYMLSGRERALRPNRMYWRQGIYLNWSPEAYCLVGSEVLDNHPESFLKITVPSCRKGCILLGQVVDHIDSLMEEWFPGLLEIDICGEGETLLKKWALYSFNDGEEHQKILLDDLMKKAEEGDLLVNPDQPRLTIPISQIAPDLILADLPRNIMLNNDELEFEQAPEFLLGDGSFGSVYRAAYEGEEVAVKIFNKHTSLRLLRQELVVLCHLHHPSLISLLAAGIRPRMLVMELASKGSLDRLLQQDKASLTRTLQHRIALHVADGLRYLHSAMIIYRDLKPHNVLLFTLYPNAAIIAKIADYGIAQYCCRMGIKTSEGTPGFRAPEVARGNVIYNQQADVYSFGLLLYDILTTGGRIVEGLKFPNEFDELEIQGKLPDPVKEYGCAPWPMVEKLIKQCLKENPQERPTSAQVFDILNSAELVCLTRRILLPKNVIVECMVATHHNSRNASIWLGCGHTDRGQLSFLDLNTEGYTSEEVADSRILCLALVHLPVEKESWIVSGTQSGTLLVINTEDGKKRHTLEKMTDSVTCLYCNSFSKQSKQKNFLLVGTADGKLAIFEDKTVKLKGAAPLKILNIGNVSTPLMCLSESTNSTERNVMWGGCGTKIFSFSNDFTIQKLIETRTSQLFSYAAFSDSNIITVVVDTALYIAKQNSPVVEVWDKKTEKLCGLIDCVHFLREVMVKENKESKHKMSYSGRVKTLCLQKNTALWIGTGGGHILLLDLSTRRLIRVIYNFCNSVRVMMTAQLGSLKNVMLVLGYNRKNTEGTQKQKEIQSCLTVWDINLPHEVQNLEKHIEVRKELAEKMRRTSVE
Method: as §1, §2
as §3, with “triplicate. […]” for “triplicate.”

[3] = target: T3, truncated LRRK2 (GST tagged LRRK2 of amino acids 970-2527) (Homo sapiens, UniProt Q5S007); assay: LRRKtide 32P-ATP peptide kinase assay (Protocol 1), truncated LRRK2; type: biochemical; conditions: 10 μM ATP, 200 μM lrrktide
T3 construct: GST tagged LRRK2 of amino acids 970-2527; GST
T3 sequence (Q5S007 970-2527): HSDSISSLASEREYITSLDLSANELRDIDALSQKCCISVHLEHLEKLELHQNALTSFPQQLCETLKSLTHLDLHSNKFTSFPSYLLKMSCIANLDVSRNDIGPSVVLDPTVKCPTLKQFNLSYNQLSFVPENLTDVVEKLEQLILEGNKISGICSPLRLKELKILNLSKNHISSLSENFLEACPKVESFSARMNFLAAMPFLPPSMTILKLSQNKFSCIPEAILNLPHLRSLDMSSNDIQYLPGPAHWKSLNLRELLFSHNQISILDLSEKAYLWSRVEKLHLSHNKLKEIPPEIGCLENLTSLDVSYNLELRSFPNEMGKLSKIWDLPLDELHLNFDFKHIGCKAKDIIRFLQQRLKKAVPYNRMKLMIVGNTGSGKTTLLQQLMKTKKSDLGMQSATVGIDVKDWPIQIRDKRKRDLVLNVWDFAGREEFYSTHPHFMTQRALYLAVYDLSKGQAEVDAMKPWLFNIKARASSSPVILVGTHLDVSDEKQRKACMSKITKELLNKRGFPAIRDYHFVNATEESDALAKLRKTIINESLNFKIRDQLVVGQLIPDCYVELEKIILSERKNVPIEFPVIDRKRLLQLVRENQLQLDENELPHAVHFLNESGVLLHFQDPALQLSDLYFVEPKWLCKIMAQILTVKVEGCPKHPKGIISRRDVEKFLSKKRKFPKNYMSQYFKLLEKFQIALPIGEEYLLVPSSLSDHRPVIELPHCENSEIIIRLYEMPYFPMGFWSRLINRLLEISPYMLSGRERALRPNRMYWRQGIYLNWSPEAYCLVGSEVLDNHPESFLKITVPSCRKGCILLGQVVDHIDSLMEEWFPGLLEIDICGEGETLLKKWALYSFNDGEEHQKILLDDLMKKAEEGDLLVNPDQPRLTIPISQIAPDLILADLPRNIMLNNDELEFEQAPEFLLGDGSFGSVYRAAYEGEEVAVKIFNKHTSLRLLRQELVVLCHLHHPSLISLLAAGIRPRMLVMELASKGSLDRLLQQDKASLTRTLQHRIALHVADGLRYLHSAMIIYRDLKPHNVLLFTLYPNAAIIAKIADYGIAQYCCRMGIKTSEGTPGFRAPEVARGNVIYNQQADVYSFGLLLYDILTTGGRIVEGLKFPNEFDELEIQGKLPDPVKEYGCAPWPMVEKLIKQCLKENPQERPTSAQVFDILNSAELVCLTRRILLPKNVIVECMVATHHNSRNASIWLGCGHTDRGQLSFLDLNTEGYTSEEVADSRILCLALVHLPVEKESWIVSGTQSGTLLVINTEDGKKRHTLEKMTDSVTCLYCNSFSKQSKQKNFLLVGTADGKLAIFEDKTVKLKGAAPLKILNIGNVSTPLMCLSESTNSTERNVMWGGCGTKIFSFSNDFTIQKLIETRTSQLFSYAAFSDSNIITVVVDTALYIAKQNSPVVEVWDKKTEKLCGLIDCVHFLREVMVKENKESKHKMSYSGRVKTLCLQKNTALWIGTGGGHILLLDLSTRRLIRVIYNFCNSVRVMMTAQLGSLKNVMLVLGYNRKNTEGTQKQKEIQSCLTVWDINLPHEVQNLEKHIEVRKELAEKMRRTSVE
Method: as §1, §2, §3, §4

T1 sequence (Q5S007 970-2527 G2019S): as the sequence (Q5S007 970-2527) above, with G1050S counted along it

IC50 [1] [nM] | IC50 [2] [nM] | IC50 [3] [nM] | melting point [°C] | SMILES
< 100 | < 100 | < 100 | > 300 | O=C1CCNc2ccn3ncc(c3n2)-c2cccc(c2)OCCN1 [Example 3]
100 to 1000 | 100 to 1000 | 100 to 1000 | > 300 | CN1CCNc2ccn3ncc(c3n2)-c2cccc(c2)OCC1=O [Example 5]

Source: US9370520B2, “Macrocyclic LRRK2 kinase inhibitors” (IPSEN PHARMA S.A.S., priority 2011, dated 2016)
